Data reported in patent publication US11911178B2, “System and method to detect and treat arrhythmogenic regions in atrial fibrillation” (Northwestern University, priority 2020, dated 2024).

Tested on: atrial fibrillation
Experiment: open chest epicardial electrogram mapping of atrial fibrillation in animals at baseline and after ROS scavenger (NAC) administration
Type: in vivo
Experimental: In an illustrative embodiment, the proposed method and system involve use of an electrogram to monitor a patient's heart characteristics. An electrode recording system can be used to receive and store baseline electrogram signals from the heart of the patient during sinus rhythm. As discussed in more detail below, mapping is performed based on the received electrogram signals to generate high resolution maps in multiple atrial regions of the patient. A reactive oxygen species scavenger (e.g., NAC) is then administered to the patient. The electrogram is used to measure various characteristics of the heart after administration of the ROS scavenger. These characteristics can include dominant frequency (DF), cycle length (CL), organization index (OI), fractionation index (FI), recurrence morphology percentage (Rec %), Shannon's entropy (ShEn), conduction velocity, and voltage. The monitored characteristics can also include the number and stability of rotational, focal, and wavelet activities in different atrial regions of the heart. The various atrial regions of the heart can include posterior left atrium (PLA), left atrial free wall (LAFW), left atrial appendage (LAA), posterior right atrium (PRA), right atrial free wall (RAFW), right atrial appendage (RAA), etc. In alternative embodiments, different heart regions may be used.
In an illustrative embodiment, the proposed system uses a computing system to perform calculation of percentage changes of AF characteristics at each electrogram electrode location at different time intervals subsequent to administration of the ROS scavenger. The percentage changes are based on the baseline readings from the electrogram (i.e., the readings received prior to administration of the ROS scavenger). For example, the calculations of percentage changes can be after 30 minutes, 1 hour, and 2 hours in one embodiment. Alternatively, different or additional times may be used, such as 45 minutes, 1.5 hours, 3 hours, 4 hours, etc. In some implementations, rebolus of the ROS scavenger administration may be performed in between the time periods.
Referring to FIG. 2B, a baseline measurement for each of a plurality of characteristics is obtained using the electrogram system in an operation 230. The baseline measurements are measured prior to administration of the ROS scavenger in an operation 235, and mapping of the various characteristics is performed based on the measured characteristics in an operation 240. Any of the characteristics described herein can be used. The system continues conducting measurements using the electrogram at various periods of time subsequent to administration of the ROS scavenger, such as 30 minutes, 1 hour, 2 hours, etc. The system also calculates the percentage change for each of the measured characteristics at each of the periods of time, as compared to the baseline measurements in an operation 245. Hotspots are identified for each measured characteristic based on the percentage changes in the operation 245. In one embodiment, the determined percentage changes are compared to a percentage change threshold to determine whether a given area is a hotspot. The percentage change threshold can be 5%, 8%, 10%, 20%, etc. depending on the implementation. Alternatively, instead of basing the determination on the percentage change, the determination of whether an area is a hotspot can be based on the amount of absolute change in the measured characteristic, and can vary for each characteristic. Based on the identified hotspots, the system also calculates the percentage of overlap among the various hotspots from each of the characteristics in an operation 250. The system maps the overlapping hotspots (based on the percentage of overlap) so that they can be visualized in an operation 255, and the overlapping hotspots are then targeted for treatment.
Experiments were conducted on animals using the techniques described herein. […]

CC(=O)N[C@@H](CS)C(=O)O [NAC, N-acetylcysteine]
mapping field showing hotspot overlap in >50% of the EGM measures (Animal 1, LAFW, 1 hour after administration): 36%
mapping field showing hotspot overlap in >50% of the EGM measures (Animal 1, LAFW, 2 hours after administration): 13%
mapping field showing hotspot overlap in >50% of the EGM measures (Animal 8, LAFW, 1 hour after administration): 15%
mapping field showing hotspot overlap in >50% of the EGM measures (Animal 8, LAFW, (2) hours after administration): 48%
DF peak (LAFW and PLA, 1 hour after NAC, baseline peak 11.5 Hz, histogram of all 10 hearts): 9 Hz
DF peak (LAFW and PLA, 2 hours after NAC, baseline peak 11.5 Hz, histogram of all 10 hearts): 7.5 Hz
stability of observed 360 degree rotations in activation maps (LAFW, after NAC administration): significantly decreased
DF peak (RAA, after 1 hr NAC, baseline peak 8.5 Hz): 7.5 Hz
rotational source (after NAC administration): reduced
mapping field with overlap in more than 50% of the electrogram measurements (percentage change threshold 5%, Animal 1, 1 hour after administration): 19%
mapping field with overlap in more than 50% of the electrogram measurements (percentage change threshold 5%, Animal 1, 2 hours after administration): 27%
mapping field with overlap in more than 50% of the electrogram measurements (percentage change threshold 5%, Animal 8, 1 hour after administration): 17%
mapping field with overlap in more than 50% of the electrogram measurements (percentage change threshold 5%, Animal 8, 2 hours after administration): 47%
mapping field with overlap in more than 50% of the electrogram measurements (percentage change threshold 20%, Animal 1, after 1 hour): 2%
mapping field with overlap in more than 50% of the electrogram measurements (percentage change threshold 20%, Animal 1, after 2 hours): 7%
mapping field with overlap in more than 50% of the electrogram measurements (percentage change threshold 20%, Animal 8, after 1 hour): 6%
mapping field with overlap in more than 50% of the electrogram measurements (percentage change threshold 20%, Animal 8, after 2 hours): 29%
